The record followed here is the supplement of paper PMC11208160.
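Also: IS621 recombinase and bridge RNA in Escherichia coli cells.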

This data set can be described thus: recombinant barcode read abundance after kanamycin selection (control-corrected) (log10(CPM+1)); higher = more efficient recombination; sequences stand for … in AGTGCAGAGAAAATCGGCCAGTTTTCTCTGCCTGCAGTCCGCATGCCGT…AGATTTATGCAGCGGACTGCCTTTCTCCCAAAGTGATAAACCGGACAGTATCATGGACCGGTTTTCCCGGTAATCCGTATTTGCAAGGTTGGTTTCACT; site = the 11-nt target. The gist of the method: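 In a pooled screen in E. coli, targets were paired with target-binding loops of the IS621 bridge RNA. Each oligo carried a promoter, a target, a barcode and the first 104 bridge RNA bases driven by J23119, and was Gibson-cloned into a vector holding the remaining 73 bp and a T7-inducible recombinase before co-electroporation with a donor plasmid. Duplicate platings went onto chloramphenicol/ampicillin LB agar as the control or onto chloramphenicol/ampicillin/kanamycin with 0.1 mM IPTG. Recombination efficiency is the averaged, control-corrected count per million of barcodes at recombinant junctions, given as log10(CPM+1).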
With “AGTCATCCTTGGGTTCTAACCTGTTGCCT (site AGTCATACTAT)”, the “recombinant barcode read abundance (log10)” value was determined as 0.0998. Consider “AGTCATCCTTGGGTTCTAACCTGTTGCCT (site AGTCATCCTAG)”, for which the “recombinant barcode read abundance (log10)” value amounted to 0.667. With “AGTCCTGCTTGGGTTCTAACCTGTTGCCT (site AGTCCTGCTAG)”, the “recombinant barcode read abundance (log10)” value came out at 0.722. As for “AGTCCTGCTTGGGTTCTAACCTGTTGCCT (site CGTCCTGCTAG)”, the figure is 0.072. In the case of “AGTCCTGCTTGGGTTCTAACCTGTTGCCT (site GGTCCTGCTAG)” it was 0.154; in that of “AGTCCTGCTTGGGTTCTAACCTGTTGCCT (site TGTCCTGCTAG)”, 0.0318. With “AGTCGATCTTGGGTTCTAACCTGTTGCTT (site ACTCGATCTAG)”, the “recombinant barcode read abundance (log10)” value is 0.0101. As for “AGTCGATCTTGGGTTCTAACCTGTTGCTT (site AGTCGATCTAA)”, the “recombinant barcode read abundance (log10)” value amounted to 0.496. For “AGTCGGCCTTGGGTTCTAACCTGTTGCCT (site AGTCGGCCTAG)”, the “recombinant barcode read abundance (log10)” value came to 0.129. In the case of “AGTCGGCCTTGGGTTCTAACCTGTTGCCT (site ATTCGGCCTAG)”, the “recombinant barcode read abundance (log10)” value was 0.228.

With “AGTCGGTCTTGGGTTCTAACCTGTTGCAT (site AGTCGGTCTAT)”, the “recombinant barcode read abundance (log10)” value was determined as 0.813. Turning to “AGTCGGTCTTGGGTTCTAACCTGTTGCAT (site GGTCCGTCTAT)”, the “recombinant barcode read abundance (log10)” value stood at 0.0825. Turning to “AGTCTACCTTGGGTTCTAACCTGTTGCTT (site AGTCTACCTAA)”, the “recombinant barcode read abundance (log10)” value was 0.331.

With “AGTCTACCTTGGGTTCTAACCTGTTGCTT (site CGTCTACCTAA)”, the “recombinant barcode read abundance (log10)” value turned out to be 0.0324.

Consider “AGTCTAGCTTGGGTTCTAACCTGTTGCCT (site AGTCTAGCTAG)”, for which the “recombinant barcode read abundance (log10)” value is 0.0325. Consider “AGTCTAGCTTGGGTTCTAACCTGTTGCCT (site AGTCTAGCTCG)”, for which the “recombinant barcode read abundance (log10)” value was determined as 0.692.

For “AGTCTAGCTTGGGTTCTAACCTGTTGCCT (site AGTCTAGCTGG)”, the “recombinant barcode read abundance (log10)” value is 0.141. Consider “AGTCTAGCTTGGGTTCTAACCTGTTGCCT (site AGTCTAGCTTG)”, for which the “recombinant barcode read abundance (log10)” value came out at 0.0207. With “AGTCTAGCTTGGGTTCTAACCTGTTGCTA (site AGTCTAGCTGA)”, the “recombinant barcode read abundance (log10)” value turned out to be 0.166. Take “AGTCTAGCTTGGGTTCTAACCTGTTGCTA (site AGTCTAGCTTA)”: the “recombinant barcode read abundance (log10)” value was determined as 0.175. As for “AGTGAGACTTGGGTTCTAACCTGTTGCGG (site ACCGAGACTCC)”, the figure is 1.09. Regarding “AGTGAGACTTGGGTTCTAACCTGTTGCGG (site AGTGAGACTCC)”, the “recombinant barcode read abundance (log10)” value worked out at 2.99. As to “AGTGCGCCTTGGGTTCTAACCTGTTGCTA (site AGTGCGCCTTA)”, the “recombinant barcode read abundance (log10)” value amounted to 0.341.

For the sequence “AGTGCGCCTTGGGTTCTAACCTGTTGCTA (site AGTTCGCCTTA)”, the “recombinant barcode read abundance (log10)” value is 0.29. Turning to “AGTGTCGCTTGGGTTCTAACCTGTTGCGG (site AGTATCGCTCC)”, the “recombinant barcode read abundance (log10)” value amounted to 0.96. Take “AGTGTCGCTTGGGTTCTAACCTGTTGCGG (site AGTCTCGCTCC)”: the “recombinant barcode read abundance (log10)” value was 0.0162. In the case of “AGTGTCGCTTGGGTTCTAACCTGTTGCGG (site AGTGTCGCTCC)”, the “recombinant barcode read abundance (log10)” value came to 1.6. In the case of “AGTGTCGCTTGGGTTCTAACCTGTTGCGG (site AGTTTCGCTCC)” it was 0.301; in that of “AGTTCTCCTTGGGTTCTAACCTGTTGCCT (site AGTTCTCCTAG)”, 0.0504.

As for “AGTTCTCCTTGGGTTCTAACCTGTTGCCT (site CGTTCTCCTAG)”, the “recombinant barcode read abundance (log10)” value turned out to be 0.415. In the case of “AGTTCTCCTTGGGTTCTAACCTGTTGCCT (site GGTTCTCCTAG)”, the “recombinant barcode read abundance (log10)” value came to 0.207.

Regarding “AGTTCTCCTTGGGTTCTAACCTGTTGCCT (site TGTTCTCCTAG)”, the “recombinant barcode read abundance (log10)” value was 0.456. As for “AGTTGCACTTGGGTTCTAACCTGTTGCCT (site AGTTACACTAG)”, the figure is 0.14; as for “AGTTGCACTTGGGTTCTAACCTGTTGCCT (site AGTTCCACTAG)”, 0.11. Consider “AGTTGCACTTGGGTTCTAACCTGTTGCCT (site AGTTGCACTAG)”, for which the “recombinant barcode read abundance (log10)” value worked out at 0.423. On to “AGTTGCACTTGGGTTCTAACCTGTTGCCT (site AGTTTCACTAG)”, for which the “recombinant barcode read abundance (log10)” value came out at 0.0516. Turning to “AGTTTAACTTGGGTTCTAACCTGTTGCAC (site AGTTTAACTGT)”, the “recombinant barcode read abundance (log10)” value was found to be 0.0458. In the case of “AGTTTAACTTGGGTTCTAACCTGTTGCAC (site GTCGGTCCTCG)” it was 0.258; in that of “ATAAAAGCTTGGGTTCTAACCTGTTGCCT (site ATAAAAGCTAG)”, 1.5; in that of “ATAAAAGCTTGGGTTCTAACCTGTTGCCT (site ATAACAGCTAG)”, 0.0538.

For “ATAAAAGCTTGGGTTCTAACCTGTTGCCT (site ATAAGAGCTAG)”, the “recombinant barcode read abundance (log10)” value was 0.172.

As to “ATAAAAGCTTGGGTTCTAACCTGTTGCCT (site ATAATAGCTAG)”, the “recombinant barcode read abundance (log10)” value was 0.59.

With “ATAAACCCTTGGGTTCTAACCTGTTGCAT (site AGAATCCCTAT)”, the “recombinant barcode read abundance (log10)” value was found to be 0.324. As for “ATAAACCCTTGGGTTCTAACCTGTTGCAT (site ATAAACCCTAT)”, the figure is 2.4; as for “ATAACCTCTTGGGTTCTAACCTGTTGCCT (site ATAACCTCTAG)”, 2.

Take “ATAACCTCTTGGGTTCTAACCTGTTGCCT (site GAGGTGCCTCT)”: the “recombinant barcode read abundance (log10)” value is 0. On to “ATAAGACCTTGGGTTCTAACCTGTTGCCT (site ATAAGACCTAG)”, for which the “recombinant barcode read abundance (log10)” value was found to be 2.24. Regarding “ATAAGACCTTGGGTTCTAACCTGTTGCCT (site ATGAGAGCTAG)”, the “recombinant barcode read abundance (log10)” value was 0.229. “ATAAGGCCTTGGGTTCTAACCTGTTGCCT (site ATAAAGCCTAG)”: the “recombinant barcode read abundance (log10)” value stood at 0.102.

“ATAAGGCCTTGGGTTCTAACCTGTTGCCT (site ATAAGGCCTAG)”: the “recombinant barcode read abundance (log10)” value came out at 0.154.

In the case of “ATAGAATCTTGGGTTCTAACCTGTTGCTC (site ATAGAATCTGA)”, the “recombinant barcode read abundance (log10)” value was 1.96. As for “ATAGAATCTTGGGTTCTAACCTGTTGCTC (site TGCCTGCCTCT)”, the figure is 0.204. In the case of “ATAGACCCTTGGGTTCTAACCTGTTGCCT (site ATAGACCCTAG)” it was 2.36. Take “ATAGACCCTTGGGTTCTAACCTGTTGCCT (site CTAGACCCTAG)”: the “recombinant barcode read abundance (log10)” value came out at 0.918. In the case of “ATAGACCCTTGGGTTCTAACCTGTTGCCT (site GTAGACCCTAG)” it was 0.599; in that of “ATAGACCCTTGGGTTCTAACCTGTTGCCT (site TTAGACCCTAG)”, 1.49.

“ATAGAGTCTTGGGTTCTAACCTGTTGCCT (site ACAGATTCTAG)”: the “recombinant barcode read abundance (log10)” value amounted to 0.143. For the sequence “ATAGAGTCTTGGGTTCTAACCTGTTGCCT (site ATAGAGTCTAG)”, the “recombinant barcode read abundance (log10)” value turned out to be 2.64. With “ATAGGGTCTTGGGTTCTAACCTGTTGCCT (site AAAGGGTCTAG)”, the “recombinant barcode read abundance (log10)” value is 1.04. Take “ATAGGGTCTTGGGTTCTAACCTGTTGCCT (site ACAGGGTCTAG)”: the “recombinant barcode read abundance (log10)” value came out at 1.85. In the case of “ATAGGGTCTTGGGTTCTAACCTGTTGCCT (site AGAGGGTCTAG)”, the “recombinant barcode read abundance (log10)” value was found to be 0.211. For “ATAGGGTCTTGGGTTCTAACCTGTTGCCT (site ATAGGGTCTAG)”, the “recombinant barcode read abundance (log10)” value was found to be 2.5. In the case of “ATAGGTCCTTGGGTTCTAACCTGTTGCCT (site ATAGGTCCTAG)” it was 1.58; in that of “ATAGGTCCTTGGGTTCTAACCTGTTGCCT (site ATCGGTCCTAG)”, 0.202. As to “ATAGGTCCTTGGGTTCTAACCTGTTGCCT (site ATGGGTCCTAG)”, the “recombinant barcode read abundance (log10)” value worked out at 0.189.

“ATAGGTCCTTGGGTTCTAACCTGTTGCCT (site ATTGGTCCTAG)”: the “recombinant barcode read abundance (log10)” value is 0.309. In the case of “ATATCAACTTGGGTTCTAACCTGTTGCCG (site ATATCAACTCG)”, the “recombinant barcode read abundance (log10)” value is 0.625. In the case of “ATATCAACTTGGGTTCTAACCTGTTGCCG (site TCTGTGTCTTA)”, the “recombinant barcode read abundance (log10)” value turned out to be 0.0298. Turning to “ATATCTTCTTGGGTTCTAACCTGTTGCCT (site ATATCTTCTAG)”, the “recombinant barcode read abundance (log10)” value worked out at 1.03. With “ATATCTTCTTGGGTTCTAACCTGTTGCCT (site ATTTCTTCTAG)”, the “recombinant barcode read abundance (log10)” value was determined as 0.578. As to “ATATGATCTTGGGTTCTAACCTGTTGCCT (site ATATGATCTAG)”, the “recombinant barcode read abundance (log10)” value amounted to 1.43.

Take “ATATGATCTTGGGTTCTAACCTGTTGCCT (site ATATTATCTTG)”: the “recombinant barcode read abundance (log10)” value came to 0.145.

As to “ATATGTACTTGGGTTCTAACCTGTTGCCA (site ATATGTACTCG)”, the “recombinant barcode read abundance (log10)” value was 0.22.

With “ATATGTACTTGGGTTCTAACCTGTTGCCA (site ATATGTACTTG)”, the “recombinant barcode read abundance (log10)” value was 0.733. Consider “ATATGTCCTTGGGTTCTAACCTGTTGCAA (site ATATGTCCTTT)”, for which the “recombinant barcode read abundance (log10)” value amounted to 0.715.

As to “ATATGTCCTTGGGTTCTAACCTGTTGCAA (site GGTGCATCTAA)”, the “recombinant barcode read abundance (log10)” value was determined as 0.0198. On to “ATCAAAGCTTGGGTTCTAACCTGTTGCCT (site ATCAAAGCTAG)”, for which the “recombinant barcode read abundance (log10)” value worked out at 0.154.
